# Reference: US20250281564A1, “DYSREGULATION OF NEUROPROTEASOMES BY APOE ISOFORMS DRIVES ENDOGENOUS TAU AGGREGATION” (The Trustees of Columbia University in the City of New York, priority 2022, published 2025)
# Residues, ends and D or L forms follow the SMILES beside them. *: point of attachment. Cbz = O=C(OCc1ccccc1)*
# Assays:
# human Tau = assay: Sarkosyl fractionation and Tau immunoblot, hTau-KI primary cortical neurons; type: cell-based; settings: 1 μM, 12 hours, vs DMSO
# Text: (§1) (FIG. 5A) Effect of neuroproteasome-specific inhibitor iBEp on Tau aggregation in primary neurons. […] Quantification of soluble and insoluble murine Tau (mTau) intensities normalized to soluble GAPDH. […] (FIG. 5B) Effect of neuroproteasome inhibition on aggregation of human Tau (hTau). […] (FIG. 5C) Generation of reversible neuroproteasome inhibitors to test effects of neuroproteasome inhibition. (Top) Structure of Sulfo-MG132 (SulfoMG). […] (FIG. 5D) Effect of reversible neuroproteasome inhibition using SulfoMG on Tau aggregation. […] Quantification of soluble and insoluble Tau intensities were normalized to soluble GAPDH. Data (right) are mean±SEM normalized respective to DMSO controls. […] (FIG. 5E) Testing iBEp permeability in vivo. […] 72 hours post injection, hippocampi were isolated and subjected to membrane fractionation without detergent. […] (FIG. 5F) Effect of neuroproteasome inhibition on Tau aggregation in vivo.
# phosphorylated Tau = assay: Immunohistochemistry for phosphorylated Tau (AT8) in hTau-KI mice after stereotactic injection; settings: hTau-KI mice, stereotactic, 72 hours
# [1] = tested on: Thioflavin S-positive aggregates; assay: Thioflavin S staining of hippocampal sections of hTau-KI mice after stereotactic injection; settings: hTau-KI mice, stereotactic, 72 hours
# p62, LC3bI/II, Ulk1 = assay: Autophagy marker immunoblot in primary neurons; type: cell-based, mouse; settings: 12 hours, DIV14 WT primary cortical neurons
# Text: (FIG. 4A) (Top) Structure of azide-PEG24-epoxomicin handle to enable rapid conjugation of linkers to global proteasome inhibitor epoxomicin using Click chemistry. (Bottom) Structure of Neuroproteasome-specific inhibitor impermeant Biotin-PEG24-Epoxomicin (iBEp). (FIG. 4B) Assessing permeability of iBEp in primary neurons. […] Cytosolic (Cyto) and membrane (Mem) fractions were immunoblotted using indicated antibodies. (FIG. 4C) Proteasome catalytic activity of membrane (Mem) and cytosolic (Cyto) fractions of neurons treated with iBEp. […] Proteasome catalytic activity was assessed by monitoring degradation of Suc-LLVY-AMC; proteasome-dependent cleavage of the substrate increases AMC fluorescence. N=3 biological replicates. **** p<0.0001 by One-Way ANOVA. (FIG. 4D) Primary neurons treated with iBEp probed for autophagy markers. […] Lysates were immunoblotted using indicated antibodies against common autophagy markers. Quantification of p62, LC3b, and Ulk1 intensities normalized to Actin. […] (FIG. 4E) Schematic to analyze changes in sarkosyl-soluble and insoluble proteomes in response to neuroproteasome inhibition. […] Sarkosyl-soluble and insoluble fractions were labeled with Tandem Mass Tags (TMTpro) for quantitative mass spectrometry. (FIG. 4F) Differential enrichment of proteins in the sarkosyl-soluble fraction of neurons treated with iBEp versus DMSO was analyzed and plotted as log 2-fold change vs-log 10 (P-value). Green dots represent proteins enriched in the iBEp treatment compared to DMSO treatment. (FIG. 4G) Graphs plotting the log 2-fold change of select Neuroproteasome substrates enriched in the sarkosyl-soluble fraction from MS analysis in (FIG. 4F) compared to UPS substrates and autophagy markers ** p<0.01 (adjusted p-value after multiple corrections). (FIG. 4H) Differential enrichment of proteins in the sarkosyl-insoluble fraction of neurons treated with iBEp versus DMSO was analyzed and plotted as log 2-fold change vs −log 10 (P-value). Green dots represent proteins enriched in the iBEp treatment compared to DMSO treatment. (FIG. 4I) (Left) Identification of proteins which are exclusively enriched in the insoluble fraction with no corresponding change in the soluble fraction (red). Plk2 represents the only protein which is enriched in the soluble fraction with no corresponding change in the insoluble fraction (green). Proteins plotted as differences in log 2 fold changes. (Right) Graphs plotting the log 2 fold changes of insoluble Tau (top) and soluble Tau (bottom) enriched in neurons treated with iBEp vs DMSO. ** p<0.01 (adjusted p-value after multiple corrections).
# FIG. 5A-5G: Neuroproteasomes are differentially regulated by ApoE isoforms to determine formation of endogenous sarkosyl-insoluble Tau inclusions. […]
# endogenous mouse Tau = assay: Sarkosyl fractionation and Tau immunoblot, WT primary cortical neurons; type: cell-based; settings: 1 μM, 12 hours, vs DMSO
# Text: as §1
# proteasome = proteasome (Homo sapiens, UniProt P28072+P28074+Q99436); assay: Efficacy against the proteasome relative to the parent inhibitor; type: biochemical
# Text: We next tested the potency and selectivity of iBEp relative to Epoxomicin. Epoxomicin covalently and irreversibly binds the catalytic β subunits of the proteasome-therefore, the biotin moiety on iBEp serves as a tracer to detect whether proteasomes are inhibited by monitoring biotin signal on an SDS-PAGE gel (83, 87-89). […] This is supported by previous data that modification of the non-reactive end of epoxomicin has been shown not to change the selectivity of Epoxomicin for the proteasome (83, 87-89). […] We therefore chose doses of inhibitor where the effective concentration of the inhibitor was similar to previous studies using Epoxomicin alone and well within the acceptable range of efficacy given how potent Epoxomicin is as a proteasome inhibitor.
# Many of our experiments rely on the use of iBEp because the biotin tracer on an irreversible and specific inhibitor allows us to track which proteasomes are inhibited. However, we wanted to validate our findings using a proteasome inhibitor with a distinct mechanism of action from Epoxomicin. We therefore modified MG132, a reversible peptide aldehyde proteasome inhibitor, with a sulfonated biotin linker on the nonreactive N-terminus (84). […] Instead, we turned to cellular and functional readouts of permeability. […]
compound,measurement,setting,value
"CC(C)C[C@@H](C=O)NC(=O)[C@H](CC(C)C)NC(=O)[C@H](CC(C)C)NC(=O)OCc1ccccc1 [MG132, reference compound] (Cbz-Leu-Leu-Leu-aldehyde)","sarkosyl-insoluble Tau, hTau-KI neurons",human Tau,does not affect the sarkosyl-insoluble accumulation of Tau
"C[C@@H]1C[C@@H]([C@H](O)CC2CC(=O)NC(=O)C2)C(=O)[C@@H](C)C1 [cycloheximide, reference compound]","AT8 staining, co-injection with iBEp vs contralateral iBEp alone",phosphorylated Tau,completely eliminated AT8 staining
same,"ThioS+ staining, co-injection with iBEp vs iBEp alone",[1],complete return to baseline of ThioS+ staining
"CC[C@H](C)[C@H](NC(=O)[C@H]([C@@H](C)CC)N(C)C(C)=O)C(=O)N[C@H](C(=O)N[C@@H](CC(C)C)C(=O)[C@@]1(C)CO1)[C@@H](C)O [Epoxomicin, reference compound]","sarkosyl-insoluble Tau, hTau-KI neurons",human Tau,no change in sarkosyl-insoluble Tau
same,LC3bI/II,"p62, LC3bI/II, Ulk1",little to no change in LC3bI/II
same,p62 levels,"p62, LC3bI/II, Ulk1",strong induction of p62
same,"sarkosyl-insoluble Tau, WT neurons",endogenous mouse Tau,no change in sarkosyl-insoluble Tau
Sulfo-MG132 [SulfoMG],"sarkosyl-insoluble Tau, hTau-KI neurons",human Tau,induces similar partitioning of hTau into the sarkosyl-insoluble fraction as iBEp
same,efficacy against the proteasome relative to the parent inhibitor,proteasome,significant inhibition of proteasomes using SulfoMG despite the moderate loss of efficacy compared to MG132
